Where a SMILES comes first, the peptide text is derived from it.
How the values were obtained:
[1] = target: T1, Angiotensin-converting enzyme (Mus musculus, UniProt P09470); experiment: 50% Inhibitory potency against angiotensin I converting enzyme from mouse striatum.
T1 sequence (P09470 whole entry): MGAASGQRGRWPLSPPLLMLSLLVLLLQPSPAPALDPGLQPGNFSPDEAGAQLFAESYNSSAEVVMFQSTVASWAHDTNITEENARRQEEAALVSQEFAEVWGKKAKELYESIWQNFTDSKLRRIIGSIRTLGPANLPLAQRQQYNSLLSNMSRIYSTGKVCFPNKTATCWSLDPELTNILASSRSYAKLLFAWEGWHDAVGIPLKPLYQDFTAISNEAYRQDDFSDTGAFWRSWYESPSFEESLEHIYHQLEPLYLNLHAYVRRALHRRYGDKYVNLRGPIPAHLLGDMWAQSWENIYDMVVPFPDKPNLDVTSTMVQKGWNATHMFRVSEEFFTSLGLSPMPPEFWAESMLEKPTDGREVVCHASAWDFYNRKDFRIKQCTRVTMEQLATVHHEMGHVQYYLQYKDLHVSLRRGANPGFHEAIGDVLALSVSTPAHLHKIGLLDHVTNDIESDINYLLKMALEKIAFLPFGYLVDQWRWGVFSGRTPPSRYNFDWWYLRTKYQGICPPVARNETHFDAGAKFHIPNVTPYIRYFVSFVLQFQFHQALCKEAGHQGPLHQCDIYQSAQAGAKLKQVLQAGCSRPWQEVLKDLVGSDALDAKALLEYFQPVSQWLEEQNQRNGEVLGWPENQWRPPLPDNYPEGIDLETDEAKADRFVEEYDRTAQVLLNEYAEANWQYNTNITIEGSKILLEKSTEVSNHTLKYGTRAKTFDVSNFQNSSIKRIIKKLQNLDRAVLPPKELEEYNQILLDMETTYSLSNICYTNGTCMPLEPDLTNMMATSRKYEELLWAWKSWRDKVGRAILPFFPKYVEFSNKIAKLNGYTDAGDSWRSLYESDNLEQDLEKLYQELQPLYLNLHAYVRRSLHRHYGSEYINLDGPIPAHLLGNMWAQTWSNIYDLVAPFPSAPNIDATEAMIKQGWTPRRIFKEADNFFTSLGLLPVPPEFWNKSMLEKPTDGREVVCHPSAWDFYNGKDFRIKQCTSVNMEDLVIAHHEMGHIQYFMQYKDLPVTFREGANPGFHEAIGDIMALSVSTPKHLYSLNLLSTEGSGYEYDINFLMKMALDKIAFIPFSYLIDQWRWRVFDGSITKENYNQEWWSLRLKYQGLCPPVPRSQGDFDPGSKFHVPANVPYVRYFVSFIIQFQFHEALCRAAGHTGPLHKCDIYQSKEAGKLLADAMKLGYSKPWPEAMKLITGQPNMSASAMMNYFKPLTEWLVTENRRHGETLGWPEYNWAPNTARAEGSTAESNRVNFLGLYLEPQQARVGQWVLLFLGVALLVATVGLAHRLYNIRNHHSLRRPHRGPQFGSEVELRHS

Neprilysin = target: T2, Neprilysin (Mus musculus, UniProt Q61391)
T2 sequence (Q61391 whole entry): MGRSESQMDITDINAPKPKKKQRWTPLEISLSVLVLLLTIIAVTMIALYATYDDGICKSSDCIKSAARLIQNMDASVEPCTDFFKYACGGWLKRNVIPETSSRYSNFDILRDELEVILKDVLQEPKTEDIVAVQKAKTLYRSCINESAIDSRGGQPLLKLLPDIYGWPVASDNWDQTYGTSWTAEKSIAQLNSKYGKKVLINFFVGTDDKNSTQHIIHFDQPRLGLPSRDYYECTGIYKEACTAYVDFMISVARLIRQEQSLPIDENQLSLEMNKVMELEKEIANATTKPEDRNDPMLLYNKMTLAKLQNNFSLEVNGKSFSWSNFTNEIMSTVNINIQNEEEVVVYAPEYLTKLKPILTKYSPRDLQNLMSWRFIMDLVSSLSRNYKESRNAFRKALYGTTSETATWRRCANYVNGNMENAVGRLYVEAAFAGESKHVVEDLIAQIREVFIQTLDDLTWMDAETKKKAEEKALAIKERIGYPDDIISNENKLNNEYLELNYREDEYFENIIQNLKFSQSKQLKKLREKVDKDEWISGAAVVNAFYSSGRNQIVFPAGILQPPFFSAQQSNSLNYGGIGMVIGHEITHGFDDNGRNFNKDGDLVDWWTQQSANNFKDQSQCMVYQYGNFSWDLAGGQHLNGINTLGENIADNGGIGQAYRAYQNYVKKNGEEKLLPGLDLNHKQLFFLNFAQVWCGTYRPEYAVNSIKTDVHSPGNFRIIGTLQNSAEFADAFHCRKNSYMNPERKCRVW
Description: 50% Inhibitory potency against enkephalinase from mouse striatum.

Mus musculus = experiment: Number of writhings 10 min after intracerebroventricular administration of 10 microg 3 and ip administration of naloxone (10 min before compound is administered).; format: functional
[2] = target: T1, Angiotensin-converting enzyme
Description: 50% Inhibitory potency against Angiotensin I converting enzyme from mouse striatum.

SMILES | IC50 [1] | IC50 (Neprilysin) | Writhing number (Mus musculus) | IC50 [2]
C[C@H](NC(=O)[C@H](Cc1ccccc1)NCC(=O)O)C(=O)O | 4 µM | 0.5 µM |  | 
CC(C)CC(NC(=O)[C@H](Cc1ccccc1)NCC(=O)O)C(=O)O (single isomer, unassigned) |  | 11 µM |  | 
CC(C)C[C@H](NC(=O)[C@@H](Cc1ccccc1)NCC(=O)O)C(=O)O |  | > 100 µM |  | 
CC(C)C[C@@H](NC(=O)[C@@H](Cc1ccccc1)NCC(=O)O)C(=O)O |  | 18 µM |  | 
CC(C)C[C@H](NC(=O)[C@H](Cc1ccccc1)NCC(=O)O)C(=O)O | 2 µM | 2 µM |  | 
C=CCN1CC[C@]23c4c5ccc(O)c4O[C@H]2C(=O)CC[C@@]3(O)[C@H]1C5 [NALOXONE] |  |  | 31.2 | 
C=CCN1CC[C@]23c4c5ccc(O)c4O[C@H]2C(=O)CC[C@@]3(O)[C@H]1C5.CC(C)CC(NC(=O)C(Cc1ccccc1)C(=O)O)C(=O)O |  |  | 29.7 | 
CC(C)CC(NC(=O)C(CC(=O)O)Cc1ccccc1)C(=O)O (stereo not drawn) | 20 µM | 0.8 µM |  | 
CC(C)CC(NC(=O)C(Cc1ccccc1)C(=O)O)C(=O)O (stereo not drawn) |  | 0.7 µM | 29.7 | > 1000 µM
CC(C)CC(NC(=O)C(Cc1ccccc1)NCCC(=O)O)C(=O)O (stereo not drawn) | > 100 µM | 11 µM |  | 
CC(C)C[C@H](NC(=O)[C@@H](N)Cc1ccccc1)C(=O)O (H-Phe-Leu-OH) |  | 20 µM |  | 700 µM

Reference: ChEMBL document CHEMBL1122448, “New carboxyalkyl inhibitors of brain enkephalinase: synthesis, biological activity, and analgesic properties” (J Med Chem, 1983)
